Assay results taken from patent US20220378923A1, “BET DEGRADER” (KYOWA KIRIN CO., LTD., priority 2019, published 2022).

How the values were obtained:
[1] = test system: SU-DHL-4 subcutaneously transplanted tumor; test: Antitumor effect on subcutaneous transplant model in SCID mouse, DLBCL strain SU-DHL-4, compound 1a (Test Example 3); assay type: in vivo; conditions: for T/C: V/V0 of group divided by vehicle group; for Body Weight / Tumor Volume (mm^3): male SCID mouse; for Body Weight / V/V0 (tumor growth rate) / Tumor Volume (mm^3): mean of n=5; for Tumor Volume (mm^3): compound 1a 3 mg/kg i.v. (tail vein) 5 times a week for 2 weeks
Description: cells of DLBCL strain SU-DHL-4 (Code No. ACC 495, Deutsche Sammlung von Mikroorganismen and Zellkulturen GmbH) suspended in a 1:1 mixed solution of PBS and matrigel (CORNING Code No. 354234) were transplanted subcutaneously to the ventral side of a male SCID mouse. Eighteen days after the transplantation, the body weight and the tumor diameter were measured, the tumor volume was calculated by the following formula, and the mice were divided into two groups (n=5) so that the average tumor volume of each group was equal.
(§1) [Tumor volume (mm^3)]=[Tumor long diameter (mm)]×[Tumor short diameter (mm)]^2×0.5
The test was conducted in two groups, a vehicle administration group and a compound 1a administration group (compound administration group). To the compound 1a administration group, a solution of compound 1a dissolved in 30% DMSO/3% Tween 80/physiological saline so as to give a final concentration of 0.6 mg/mL was administered intravenously (tail vein) at 5 mL/kg (3 mg/kg) 5 times a week for 2 weeks. To the vehicle administration group, 30% DMSO/3% Tween 80/physiological saline was administered intravenously (tail vein) at 5 mL/kg on the same schedule as the compound 1a administration group. After the start of the test, body weight and tumor diameter were measured twice a week. The tumor volume on each measurement day was calculated by the above formula. The tumor growth rate (hereinafter referred to as V/VO) was calculated by dividing the tumor volume V on each measurement day by the tumor volume VO on the test start day (Day 0). The T/C was calculated by dividing the average value (T) of V/VO of each group by the average value (C) of the vehicle administration group.

[2] = test system: SU-DHL-4 subcutaneously transplanted tumor; test: Antitumor effect on subcutaneous transplant model in SCID mouse, DLBCL strain SU-DHL-4, compound 1b (Test Example 9); assay type: in vivo; conditions: for Tumor Volume (mm^3): compound 1b 10 mg/kg i.v. (tail vein) once on the test start day; for Tumor Volume (mm^3) / Body Weight: male SCID mouse; for Tumor Volume (mm^3) / Body Weight / V/V0 (tumor growth rate): mean of n=5; for T/C: V/V0 of group divided by vehicle group
Description: 1×10^7 cells of DLBCL strain SU-DHL-4 (Code No. ACC 495, Deutsche Sammlung von Mikroorganismen and Zellkulturen GmbH) suspended in a 1:1 mixed solution of PBS and matrigel (CORNING Code No. 354234) were transplanted subcutaneously on the ventral side of male SCID mouse. 14 days after the transplantation, the body weight and tumor diameter were measured, the tumor volume was calculated by the following formula, and the mice were divided into two groups (n=5) so that the average tumor volume of each group was equal. E-workbook software (ID Business Solutions) was used for grouping and measurement.
as §1
To the compound 1b administration group, a solution of compound 1b dissolved in 30% DMSO/3% Tween 80/physiological saline so as to give a final concentration of 2 mg/mL was administered intravenously (tail vein) at 5 mL/kg (10 mg/kg) once on the test start day. To the vehicle administration group, 30% DMSO/3% Tween 80/physiological saline was administered intravenously (tail vein) at 5 mL/kg in the same schedule as in the compound 1b administration group. After the start of the test, body weight and tumor diameter were measured twice a week. The tumor volume on each measurement day was calculated by the above formula. The tumor growth rate (hereinafter referred to as V/VO) was calculated by dividing the tumor volume V on each measurement day by the tumor volume VO on the test start date (Day 0). The T/C was calculated by dividing the average value (T) of V/VO of each group by the average value (C) of the vehicle administration group.

[3] = Day 0, compound 1a 3 mg/kg i.v. 5 times a week for 2 weeks
[4] = Day 3, compound 1a 3 mg/kg i.v. 5 times a week for 2 weeks
[5] = Day 7, compound 1a 3 mg/kg i.v. 5 times a week for 2 weeks
[6] = Day 10, compound 1a 3 mg/kg i.v. 5 times a week for 2 weeks
[7] = Day 14, compound 1a 3 mg/kg i.v. 5 times a week for 2 weeks
[8] = Day 18, compound 1a 3 mg/kg i.v. 5 times a week for 2 weeks
[9] = compound 1a 3 mg/kg i.v. 5 times a week for 2 weeks, SCID mouse
[10] = Day 0, compound 1b 10 mg/kg i.v. once
[11] = Day 4, compound 1b 10 mg/kg i.v. once
[12] = Day 7, compound 1b 10 mg/kg i.v. once
[13] = Day 10, compound 1b 10 mg/kg i.v. once
[14] = Day 14, compound 1b 10 mg/kg i.v. once
[15] = Day 17, compound 1b 10 mg/kg i.v. once
[16] = compound 1b 10 mg/kg i.v. once, SCID mouse

Compound: CCC(=O)N1c2ccccc2[C@H](Nc2ccc(C(=O)NCCCNC(=O)c3ccc(N[C@@H]4C[C@H](C)N(C(=O)CC)c5ccccc54)cc3)cc2)C[C@@H]1C (relative stereo) [Compound 1a, N,N′-(Propane-1,3-diyl)bis(4-{[(2S*,4R*)-2-methyl-1-propionyl-1,2,3,4-tetrahydroquinolin-4-yl]amino}benzamide)]
- T/C [1, 3]: 1.00
- Body Weight [1, 3]: 24.56 g
- V/V0 (tumor growth rate) [1, 3]: 1.00
- Tumor Volume (mm^3) ([1]; Day 0): 246.14 mm^3
- T/C [1, 4]: 0.71
- Body Weight [1, 4]: 25.36 g
- V/V0 (tumor growth rate) [1, 4]: 1.15
- Tumor Volume (mm^3) ([1]; Day 3): 284.29 mm^3
- T/C [1, 5]: 0.48
- Body Weight [1, 5]: 25.44 g
- V/V0 (tumor growth rate) [1, 5]: 1.29
- Tumor Volume (mm^3) ([1]; Day 7): 326.25 mm^3
- T/C [1, 6]: 0.22
- Body Weight [1, 6]: 25.14 g
- V/V0 (tumor growth rate) [1, 6]: 0.85
- Tumor Volume (mm^3) ([1]; Day 10): 214.74 mm^3
- T/C [1, 7]: 0.17
- Body Weight [1, 7]: 25.74 g
- V/V0 (tumor growth rate) [1, 7]: 0.89
- Tumor Volume (mm^3) ([1]; Day 14): 224.55 mm^3
- T/C [1, 8]: 0.16
- Body Weight [1, 8]: 26.23 g
- V/V0 (tumor growth rate) [1, 8]: 1.30
- Tumor Volume (mm^3) ([1]; Day 18): 325.61 mm^3
- antitumor effect on SU-DHL-4 subcutaneously transplanted tumor [1, 9]: potent antitumor effect
- weight loss [1, 9]: no weight loss was observed

Compound: Cc1sc2c(c1C)C(c1ccc(C(=O)NCCCNC(=O)c3ccc(C4=N[C@@H](CC(=O)OC(C)(C)C)c5nnc(C)n5-c5sc(C)c(C)c54)cc3)cc1)=N[C@@H](CC(=O)OC(C)(C)C)c1nnc(C)n1-2 [Compound 1b, Di-tert-butyl 2,2′-[(6S,6′S)-({[propane-1,3-diylbis(azanediyl)]bis(carbonyl)}bis(4,1-phenylene))bis(2,3,9-trimethyl-6H-thieno[3,2-f][1,2,4]triazolo[4,3-a][1,4]diazepine-4,6-diyl)]diacetate]
- Tumor Volume (mm^3) ([2]; Day 0): 208 mm^3
- T/C [2, 10]: 1.00
- Body Weight [2, 10]: 25 g
- V/V0 (tumor growth rate) [2, 10]: 1.00
- Tumor Volume (mm^3) ([2]; Day 4): 101 mm^3
- T/C [2, 11]: 0.31
- Body Weight [2, 11]: 25 g
- V/V0 (tumor growth rate) [2, 11]: 0.49
- Tumor Volume (mm^3) ([2]; Day 7): 49 mm^3
- T/C [2, 12]: 0.12
- Body Weight [2, 12]: 25 g
- V/V0 (tumor growth rate) [2, 12]: 0.24
- Tumor Volume (mm^3) ([2]; Day 10): 66 mm^3
- T/C [2, 13]: 0.11
- Body Weight [2, 13]: 26 g
- V/V0 (tumor growth rate) [2, 13]: 0.32
- Tumor Volume (mm^3) ([2]; Day 14): 87 mm^3
- T/C [2, 14]: 0.12
- Body Weight [2, 14]: 26 g
- V/V0 (tumor growth rate) [2, 14]: 0.42
- Tumor Volume (mm^3) ([2]; Day 17): 122 mm^3
- T/C [2, 15]: 0.13
- Body Weight [2, 15]: 27 g
- V/V0 (tumor growth rate) [2, 15]: 0.59
- antitumor effect on SU-DHL-4 subcutaneously transplanted tumor [2, 16]: potent antitumor effect
- weight loss [2, 16]: no weight loss was observed
